The nature of series [1]: PKPlus two-compartmental PK model fitted to reference product plasma data. More on the design: species or system human.
The conditions of series [2]: ref website drug bank, cited from earlier work.
The mark [3] stands for this setting: fasting, two-compartmental model, from reference product 2.0 mg data of ref 13.

The structures appear in SMILES notation. Where two headings read alike, the source gives them in different places.

By Log P is commonly meant the decadic logarithm of the partition coefficient of the neutral form, usually between octanol and water. Broadly, the pKa is the negative logarithm of the acid dissociation constant. A word on the Solubility: it is the concentration that dissolves in the medium under given conditions. On to `O=C(O)C[C@H](O)C[C@H](O)/C=C/c1c(C2CC2)nc2ccccc2c1-c1ccc(F)cc1` [pitavastatin calcium], for which, in series [1] (setting [3]), the “distribution coefficient from the peripheral to central compartment (k21)” value worked out at 0.086 h⁻¹ and the “distribution constant from the central to the peripheral compartment (k12)” value stood at 0.252 h⁻¹. In series [1] (human, plasma, oral, 2 mg), this compound had a Vd of 43.2 L and a clearance of 343 mL/min. For the same compound, in series [2] (model input), the “Log P” value was 3.75 and the pKa is on record as 4.86. The Solubility in series [2] (pH 4.68) was 0.0652 mg/mL. Besides, in series [2] (water), the Solubility is 0.00394 mg/mL.

Values taken from PMC9841298 (Clinical and Translational Science, 2022).
